Source: PMC10360995, “Discovery of 3-((3-amino-1H-indazol-4-yl)ethynyl)-N-(4-((4-ethylpiperazin-1-yl)methyl)-3-(trifluoromethyl)phenyl)benzamide (AKE-72), a potent Pan-BCR-ABL inhibitor including the T315I gatekeeper resistant mutant” (Journal of Enzyme Inhibition and Medicinal Chemistry, 2023)
Where two headings read alike, the source gives them in different places.

Columns and labels:
[1] = biological target: T1, CYP2D6 (Homo sapiens, UniProt P10635); assay: Cytochrome P450 inhibition assay (Vivid CYP450 kit); assay type: in vitro ADME
T1 construct: purchased ThermoFisher (Vivid CYP450 screening kit), run at RBC
T1 sequence (P10635 whole entry): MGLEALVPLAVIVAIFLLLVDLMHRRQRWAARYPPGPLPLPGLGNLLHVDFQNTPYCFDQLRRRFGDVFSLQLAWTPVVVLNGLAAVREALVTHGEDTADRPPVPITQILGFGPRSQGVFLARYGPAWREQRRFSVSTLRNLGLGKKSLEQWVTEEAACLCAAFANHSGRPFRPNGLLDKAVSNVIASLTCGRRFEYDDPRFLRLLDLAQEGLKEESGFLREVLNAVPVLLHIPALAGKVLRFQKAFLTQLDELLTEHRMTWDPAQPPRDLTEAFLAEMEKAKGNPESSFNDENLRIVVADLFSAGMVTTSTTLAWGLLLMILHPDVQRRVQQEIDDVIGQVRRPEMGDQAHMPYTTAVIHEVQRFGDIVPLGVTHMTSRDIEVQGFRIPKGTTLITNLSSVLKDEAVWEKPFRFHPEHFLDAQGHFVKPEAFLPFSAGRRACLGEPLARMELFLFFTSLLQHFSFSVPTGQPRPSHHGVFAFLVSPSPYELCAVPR
Text: (§1) Azole derivatives are well known for their ability to inhibit cytochrome P450 isozymes.
(§2) 1.8. Cytochrome P450 Assay
(§3) The binding site was defined based

[2] = biological target: T2, CYP3A4 (Homo sapiens, UniProt P08684); assay: as above; assay type: in vitro ADME; details: single-dose duplicate, read-out: CYP inhibition % CYP3A4
T2 construct: purchased ThermoFisher (Vivid CYP450 screening kit), run at RBC
T2 sequence (P08684 whole entry): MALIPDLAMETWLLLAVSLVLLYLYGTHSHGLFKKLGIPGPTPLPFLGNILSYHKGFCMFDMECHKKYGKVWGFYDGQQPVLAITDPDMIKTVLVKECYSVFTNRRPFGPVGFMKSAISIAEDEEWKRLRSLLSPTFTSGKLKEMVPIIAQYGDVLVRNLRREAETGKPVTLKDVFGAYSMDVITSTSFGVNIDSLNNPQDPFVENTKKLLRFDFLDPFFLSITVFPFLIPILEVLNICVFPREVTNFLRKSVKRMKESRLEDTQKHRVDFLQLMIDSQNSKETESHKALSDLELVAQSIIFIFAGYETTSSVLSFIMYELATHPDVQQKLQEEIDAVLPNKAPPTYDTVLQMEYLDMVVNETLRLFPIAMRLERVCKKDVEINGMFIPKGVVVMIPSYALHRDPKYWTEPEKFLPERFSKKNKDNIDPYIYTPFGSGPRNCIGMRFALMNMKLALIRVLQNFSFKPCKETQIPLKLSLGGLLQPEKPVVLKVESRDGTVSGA
Text: as §1, §2, §3

[3] = biological target: T3, CYP2C9 (Homo sapiens, UniProt P11712); assay: as above; assay type: in vitro ADME; details: recombinant CYP2C9 (Vivid CYP450 screening kit), single-dose duplicate, read-out: CYP inhibition % CYP2C9
T3 construct: purchased ThermoFisher (Vivid CYP450 screening kit), run at RBC
T3 sequence (P11712 whole entry): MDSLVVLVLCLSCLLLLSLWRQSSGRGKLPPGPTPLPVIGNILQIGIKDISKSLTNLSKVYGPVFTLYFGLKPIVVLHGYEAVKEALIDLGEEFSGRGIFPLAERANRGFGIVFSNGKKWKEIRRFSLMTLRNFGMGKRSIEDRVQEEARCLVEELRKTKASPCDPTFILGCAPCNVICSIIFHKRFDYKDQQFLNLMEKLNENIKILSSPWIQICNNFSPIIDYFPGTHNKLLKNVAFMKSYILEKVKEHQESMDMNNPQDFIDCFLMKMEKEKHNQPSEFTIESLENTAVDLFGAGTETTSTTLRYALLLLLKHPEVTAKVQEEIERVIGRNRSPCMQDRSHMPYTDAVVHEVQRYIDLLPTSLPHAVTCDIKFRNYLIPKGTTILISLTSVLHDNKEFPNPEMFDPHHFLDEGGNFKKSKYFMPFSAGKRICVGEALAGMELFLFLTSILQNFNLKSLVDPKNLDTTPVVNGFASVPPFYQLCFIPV
Text: as §1, §2, §3

[4] = biological target: T4, CYP1A2 (Homo sapiens, UniProt P05177); assay: as above; assay type: in vitro ADME
T4 construct: purchased ThermoFisher (Vivid CYP450 screening kit), run at RBC
T4 sequence (P05177 whole entry): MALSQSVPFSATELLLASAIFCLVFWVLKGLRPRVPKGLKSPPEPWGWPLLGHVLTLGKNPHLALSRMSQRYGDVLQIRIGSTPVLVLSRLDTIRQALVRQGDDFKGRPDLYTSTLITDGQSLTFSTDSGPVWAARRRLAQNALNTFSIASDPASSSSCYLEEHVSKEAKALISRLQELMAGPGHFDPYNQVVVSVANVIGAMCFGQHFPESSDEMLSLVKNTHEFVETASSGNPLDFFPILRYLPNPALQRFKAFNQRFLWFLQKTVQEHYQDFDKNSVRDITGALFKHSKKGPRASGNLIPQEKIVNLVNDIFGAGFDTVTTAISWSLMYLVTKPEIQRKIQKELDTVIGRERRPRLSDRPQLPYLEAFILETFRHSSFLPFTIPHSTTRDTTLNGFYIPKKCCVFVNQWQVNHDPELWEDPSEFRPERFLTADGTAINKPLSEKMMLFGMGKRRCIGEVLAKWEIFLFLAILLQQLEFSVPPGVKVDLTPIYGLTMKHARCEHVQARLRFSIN
Text: as §1, §2, §3

[5] = tested on: RPMI-8226; assay: NCI SRB anti-leukemic assay
[6] = tested on: K-562; assay: NCI SRB anti-leukemic assay
[7] = tested on: CCRF-CEM; assay: NCI SRB anti-leukemic assay
[8] = tested on: HL-60(TB); assay: cells; details: Homo sapiens
[9] = biological target: BCR-ABL^WT (Homo sapiens, UniProt P00519); assay: BCR-ABL WT kinase inhibition assay; assay type: biochemical
[10] = biological target: YES (Homo sapiens, UniProt P07947); assay: Kinase panel profiling at 50 nM; assay type: biochemical; details: range given for ten kinases together
Sequence of YES (P07947 whole entry): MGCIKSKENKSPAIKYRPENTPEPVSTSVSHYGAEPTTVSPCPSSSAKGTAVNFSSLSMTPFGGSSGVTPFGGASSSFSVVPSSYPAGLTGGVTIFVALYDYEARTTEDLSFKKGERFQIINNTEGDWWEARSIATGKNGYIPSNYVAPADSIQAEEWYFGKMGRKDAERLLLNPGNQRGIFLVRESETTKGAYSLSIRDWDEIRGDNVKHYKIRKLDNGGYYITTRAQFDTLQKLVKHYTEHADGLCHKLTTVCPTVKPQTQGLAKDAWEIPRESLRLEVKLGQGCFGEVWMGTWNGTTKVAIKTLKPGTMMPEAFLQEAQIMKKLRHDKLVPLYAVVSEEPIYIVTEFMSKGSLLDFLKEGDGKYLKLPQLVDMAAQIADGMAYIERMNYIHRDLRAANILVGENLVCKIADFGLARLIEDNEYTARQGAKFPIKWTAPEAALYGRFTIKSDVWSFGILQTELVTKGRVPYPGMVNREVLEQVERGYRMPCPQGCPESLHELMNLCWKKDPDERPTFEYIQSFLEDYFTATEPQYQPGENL
Protocol: (§4) Figure 3. Enzyme inhibition percentage (relative to DMSO controls) of compound 5 (0.05 µM) against a panel of 18 kinases.

[11] = biological target: FGFR1 (Homo sapiens, UniProt P11362); assay: Kinase panel profiling at 50 nM; assay type: biochemical; details: range given for ten kinases together
Protocol: as §4

[12] = biological target: LYN (Homo sapiens, UniProt P07948); assay: Kinase panel profiling at 50 nM; assay type: biochemical; details: range given for ten kinases together
Protocol: as §4

[13] = biological target: VEGFR2 (Homo sapiens, UniProt P35968); assay: Kinase panel profiling at 50 nM; assay type: biochemical; details: range given for ten kinases together
Protocol: as §4

[14] = biological target: c-Kit (Homo sapiens, UniProt P10721); assay: Kinase panel profiling at 50 nM; assay type: biochemical; details: range given for ten kinases together
Protocol: as §4

[15] = biological target: PDGFRβ (Homo sapiens, UniProt P09619); assay: Kinase panel profiling at 50 nM; assay type: biochemical; details: range given for ten kinases together
Protocol: as §4

[16] = biological target: c-Src (Homo sapiens, UniProt P12931); assay: Kinase panel profiling at 50 nM; assay type: biochemical; details: range printed for c-Src and FMS together
Protocol: as §4

[17] = biological target: FMS (Homo sapiens, UniProt P07333); assay: Kinase panel profiling at 50 nM; assay type: biochemical; details: range printed for c-Src and FMS together
Sequence of FMS (P07333 20-972): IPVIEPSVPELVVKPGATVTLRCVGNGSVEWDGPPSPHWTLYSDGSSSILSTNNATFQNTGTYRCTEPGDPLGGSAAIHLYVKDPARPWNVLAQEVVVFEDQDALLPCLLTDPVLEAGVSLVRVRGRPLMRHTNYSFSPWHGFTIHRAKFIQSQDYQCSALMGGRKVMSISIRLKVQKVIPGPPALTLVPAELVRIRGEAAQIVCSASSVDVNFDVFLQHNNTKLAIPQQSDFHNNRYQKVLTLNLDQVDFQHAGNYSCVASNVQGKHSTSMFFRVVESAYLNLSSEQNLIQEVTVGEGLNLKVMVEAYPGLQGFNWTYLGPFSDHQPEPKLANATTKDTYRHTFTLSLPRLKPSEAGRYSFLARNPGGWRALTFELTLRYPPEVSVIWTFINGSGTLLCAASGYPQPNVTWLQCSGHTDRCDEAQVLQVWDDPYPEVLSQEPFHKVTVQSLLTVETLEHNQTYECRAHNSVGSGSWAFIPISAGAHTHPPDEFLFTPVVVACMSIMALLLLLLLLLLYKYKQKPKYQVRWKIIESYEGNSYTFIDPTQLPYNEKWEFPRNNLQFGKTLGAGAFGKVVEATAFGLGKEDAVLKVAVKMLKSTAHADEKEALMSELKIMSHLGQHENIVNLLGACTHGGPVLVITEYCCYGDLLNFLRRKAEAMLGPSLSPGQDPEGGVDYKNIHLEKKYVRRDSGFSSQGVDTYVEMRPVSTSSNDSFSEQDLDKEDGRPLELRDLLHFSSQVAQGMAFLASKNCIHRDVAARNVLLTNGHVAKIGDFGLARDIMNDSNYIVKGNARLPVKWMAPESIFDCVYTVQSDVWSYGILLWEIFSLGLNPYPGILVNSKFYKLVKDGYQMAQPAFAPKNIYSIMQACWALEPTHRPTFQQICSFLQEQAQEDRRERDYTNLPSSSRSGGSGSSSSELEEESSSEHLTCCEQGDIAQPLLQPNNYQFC
Protocol: as §4

[18] = biological target: RET (Homo sapiens, UniProt P07949); assay: Kinase panel profiling at 50 nM; assay type: biochemical; details: range given for ten kinases together
Sequence of RET (P07949 29-1114): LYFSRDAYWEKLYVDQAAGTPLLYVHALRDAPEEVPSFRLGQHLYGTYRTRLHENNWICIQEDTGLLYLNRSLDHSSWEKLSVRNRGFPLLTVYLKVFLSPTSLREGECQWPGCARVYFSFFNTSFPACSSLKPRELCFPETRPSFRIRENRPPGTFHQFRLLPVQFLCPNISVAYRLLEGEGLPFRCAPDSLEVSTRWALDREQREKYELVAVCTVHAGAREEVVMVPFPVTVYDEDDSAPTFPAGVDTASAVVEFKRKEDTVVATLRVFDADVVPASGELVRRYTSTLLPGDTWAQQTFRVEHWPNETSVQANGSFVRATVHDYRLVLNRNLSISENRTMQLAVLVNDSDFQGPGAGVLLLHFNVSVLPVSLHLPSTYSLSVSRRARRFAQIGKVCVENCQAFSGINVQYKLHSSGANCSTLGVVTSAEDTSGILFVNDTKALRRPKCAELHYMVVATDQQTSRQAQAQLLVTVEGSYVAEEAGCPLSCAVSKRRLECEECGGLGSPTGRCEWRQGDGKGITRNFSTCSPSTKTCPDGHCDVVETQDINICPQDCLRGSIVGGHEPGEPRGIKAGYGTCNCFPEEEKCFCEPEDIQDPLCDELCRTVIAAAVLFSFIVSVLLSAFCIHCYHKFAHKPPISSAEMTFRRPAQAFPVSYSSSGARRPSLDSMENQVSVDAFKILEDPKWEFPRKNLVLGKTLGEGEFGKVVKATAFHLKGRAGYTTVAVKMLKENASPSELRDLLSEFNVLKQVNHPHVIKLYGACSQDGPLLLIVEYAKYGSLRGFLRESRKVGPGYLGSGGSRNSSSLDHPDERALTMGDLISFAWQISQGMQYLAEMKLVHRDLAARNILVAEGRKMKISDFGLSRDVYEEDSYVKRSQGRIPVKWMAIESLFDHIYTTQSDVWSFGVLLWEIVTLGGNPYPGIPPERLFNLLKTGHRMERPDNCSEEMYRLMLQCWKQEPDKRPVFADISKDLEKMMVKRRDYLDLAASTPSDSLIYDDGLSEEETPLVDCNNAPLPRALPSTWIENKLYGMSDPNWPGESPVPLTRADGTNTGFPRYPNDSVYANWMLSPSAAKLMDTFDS
Protocol: as §4

[19] = tested on: the other investigated kinases (panel of 18 kinases); assay: Kinase panel profiling at 50 nM; assay type: biochemical
Protocol: as §4

[20] = biological target: FYN (Homo sapiens, UniProt P06241); assay: Kinase panel profiling at 50 nM; assay type: biochemical; details: range given for ten kinases together
Protocol: as §4

[21] = biological target: FLT3 (Homo sapiens, UniProt P36888); assay: Kinase panel profiling at 50 nM; assay type: biochemical; details: range given for ten kinases together
Protocol: as §4

[22] = biological target: LCK (Homo sapiens, UniProt P06239); assay: Kinase panel profiling at 50 nM; assay type: biochemical; details: range given for ten kinases together
Protocol: as §4

[23] = tested on: K562 (Bcr-Abl positive); assay: Cellular proliferation assay; assay type: cell-based; details: Homo sapiens, K562, read-out: GI50 K562 (Bcr-Abl positive)
Text: (§5) We also tested AKE-72 against BCR-ABL-positive and BCR-ABL-negative cell lines.
as §2, §3

[24] = tested on: Ba/F3 mouse pro-B cells; assay: Cellular proliferation assay; assay type: cell-based; details: BaF3, read-out: GI50 Ba/F3 (mouse pro-B cell)
Text: as §5, §2, §3

[25] = tested on: U937 (Bcr-Abl negative); assay: Cellular proliferation assay; assay type: cell-based; details: Homo sapiens, U-937, read-out: GI50 U937 (Bcr-Abl negative)
Text: as §5, §2, §3

[26] = tested on: SR; assay: NCI SRB anti-leukemic assay
[27] = tested on: MOLT-4; assay: NCI SRB anti-leukemic assay
[28] = biological target: ABL^H396P (Homo sapiens, UniProt P00519, H396P); assay: ABL mutant enzymatic assay; assay type: biochemical; details: 10-dose, 3-fold dilution from 20 μM, 10 μM ATP
Text: (§6) Compound 5 (AKE-72) was further profiled against a number of clinically relevant ABL mutants, including E255K, F317I, H396P, M351T, and Q252H (Table 2). This outcome confirmed the ability of compound 5 to potently suppress the activity of the clinically relevant ABL mutants in single-digit nanomolar IC50 values.

[29] = biological target: ABL^M351T (Homo sapiens, UniProt P00519, M351T); assay: ABL mutant enzymatic assay; assay type: biochemical; details: 10-dose, 3-fold dilution from 20 μM, 10 μM ATP
Text: as §6

[30] = biological target: ABL^Q252H (Homo sapiens, UniProt P00519, Q252H); assay: ABL mutant enzymatic assay; assay type: biochemical; details: 10-dose, 3-fold dilution from 20 μM, 10 μM ATP
Text: as §6

[31] = biological target: ABL^F317I (Homo sapiens, UniProt P00519, F317I); assay: ABL mutant enzymatic assay; assay type: biochemical; details: 10-dose, 3-fold dilution from 20 μM, 10 μM ATP
Text: as §6

[32] = biological target: ABL^E255K (Homo sapiens, UniProt P00519, E255K); assay: ABL mutant enzymatic assay; assay type: biochemical; details: 10-dose, 3-fold dilution from 20 μM, 10 μM ATP
Text: as §6

[33] = tested on: HL-60(TB); details: five-dose assay

CCN1CCN(Cc2ccc(NC(=O)c3cccc(C#Cc4cccc5[nH]nc(N)c45)c3)cc2C(F)(F)F)CC1 [Compound 5, 3-((3-amino-1H-indazol-4-yl)ethynyl)-N-(4-((4-ethylpiperazin-1-yl)methyl)-3-(trifluoromethyl)phenyl)benzamide]
IC50 [1]: > 10000 nM
inhibition at 10 µM ([1]; human, recombinant CYP2D6 (Vivid CYP450 screening kit), 10 µM, single-dose duplicate, read-out: CYP inhibition % CYP2D6): 13.92 ± 0.06%
inhibition at 10 µM ([2]; Vivid CYP450 screening kit (CYP3A4 isozyme)): 90.6%
inhibition at 10 µM ([2]; recombinant CYP3A4 (Vivid CYP450 screening kit)): 96.57 ± 0.065%
inhibition at 10 µM [3]: 50.67 ± 0.075%
IC50 [4]: > 10000 nM
inhibition at 10 µM ([4]; human, recombinant CYP1A2 (Vivid CYP450 screening kit), 10 µM, single-dose duplicate, read-out: CYP inhibition % CYP1A2): 9.88 ± 0.09%
GI50 ([5]; Homo sapiens, RPMI-8226, read-out: GI50 RPMI-8226): 488 nM
CC50 ([5]; Homo sapiens, RPMI-8226, read-out: LC50 (half-maximal lethal concentration) RPMI-8226): > 100000 nM
TGI (total growth inhibition) RPMI-8226 ([5]; five-dose assay): 2660 nM
GI50 ([6]; Homo sapiens, K562, read-out: GI50 K-562): < 10 nM
CC50 ([6]; Homo sapiens, K562, read-out: LC50 (half-maximal lethal concentration) K-562): 5250 nM
TGI (total growth inhibition) K-562 ([6]; five-dose assay): 154 nM
TGI K-562 ([6]; five-dose assay): 154 nM
GI50 ([7]; Homo sapiens, CCRF-CEM, read-out: GI50 CCRF-CEM): 436 nM
CC50 ([7]; Homo sapiens, CCRF-CEM, read-out: LC50 (half-maximal lethal concentration) CCRF-CEM): > 100000 nM
TGI (total growth inhibition) CCRF-CEM ([7]; five-dose assay): 3040 nM
GI50 ([8]; HL-60, read-out: GI50 HL-60(TB)): 97.9 nM
CC50 ([8]; HL-60, read-out: LC50 (half-maximal lethal concentration) HL-60(TB)): 5170 nM
IC50 ([9]; 10-dose duplicate, 3-fold serial dilution, 10 µM ATP): < 0.51 nM
fold superior potency against BCR-ABL^WT versus lead indazole II ([9]; relative to II): > 300 folds
inhibition at 0.05 µM [10]: 83.9 to 99.3%
inhibition at 0.05 µM [11]: 83.9 to 99.3%
inhibition at 0.05 µM [12]: 83.9 to 99.3%
inhibition at 0.05 µM [13]: 83.9 to 99.3%
inhibition at 0.05 µM [14]: 83.9 to 99.3%
inhibition at 0.05 µM [15]: 83.9 to 99.3%
inhibition at 0.05 µM [16]: 64.5 to 73%
inhibition at 0.05 µM [17]: 64.5 to 73%
inhibition at 0.05 µM [18]: 83.9 to 99.3%
inhibition of the other investigated kinases [19]: no inhibition
inhibition at 0.05 µM [20]: 83.9 to 99.3%
inhibition at 0.05 µM [21]: 83.9 to 99.3%
inhibition at 0.05 µM [22]: 83.9 to 99.3%
GI50 [23]: 5.9 nM
GI50 [24]: 4000 ± 1170 nM
GI50 [25]: 1900 ± 61 nM
GI50 ([26]; Homo sapiens, SR, read-out: GI50 SR): 238 nM
CC50 ([26]; Homo sapiens, SR, read-out: LC50 (half-maximal lethal concentration) SR): > 100000 nM
TGI (total growth inhibition) SR ([26]; five-dose assay): 732 nM
GI50 ([27]; Homo sapiens, MOLT-4, read-out: GI50 MOLT-4): 227 nM
CC50 ([27]; Homo sapiens, MOLT-4, read-out: LC50 (half-maximal lethal concentration) MOLT-4): 5130 nM
TGI (total growth inhibition) MOLT-4 ([27]; five-dose assay): 1160 nM
IC50 [28]: < 1.02 nM
IC50 [29]: 3.44 nM
IC50 [30]: 3.88 nM
IC50 [31]: 3.12 nM
IC50 [32]: 8.98 nM
TGI (total growth inhibition) HL-60(TB) [33]: 1040 nM
